Results on eight compounds are retold here after patent EP2102204B1, “NEW AMINOPYRROLO[1,2- A]INDOLE ET AMINOPYRIDAZINO[1,6-A]INDOLE DERIVATIVES, METHOD FOR PREPARING THE SAME AND PHARMACEUTICAL COMPOSITIONS CONTAINING THE SAME” (Les Laboratoires Servier, priority 2007, dated 2008).

The structures appear in SMILES notation.

For this assay, the system named is protéine tyrosine hydroxylase (TH). Briefly: Induction of tyrosine hydroxylase in the locus coeruleus of mice (immunodetection and image analysis of brain sections). It is filed as in vivo, souris Balb/C. The note with it: i.p. 20 mg/kg, single injection, 3 days after, % par rapport à la valeur moyenne du groupe témoin; for quantité de TH au niveau du LC, coupe 1: coupe 1 du LC (sens antérieur vers postérieur); for quantité de TH au niveau du LC, coupe 2: coupe 2 du LC (sens antérieur vers postérieur); for quantité de TH au niveau du LC, coupe 3: coupe 3 du LC (sens antérieur vers postérieur); for quantité de TH au niveau du LC, coupe 4: coupe 4 du LC (sens antérieur vers postérieur); for quantité de TH au niveau du LC, coupe 5: coupe 5 du LC (sens antérieur vers postérieur); for quantité de TH au niveau du LC, coupe 6: coupe 6 du LC (sens antérieur vers postérieur); for quantité de TH au niveau du LC, coupe 7: coupe 7 du LC (sens antérieur vers postérieur); for quantité de TH au niveau du LC, coupe 8: coupe 8 du LC (sens antérieur vers postérieur). The text has this: Il est recherché, parmi les dérivés, ceux qui sont capables d'induire une augmentation de la protéine tyrosine hydroxylase (TH) dans le cerveau de la souris Balb/C, au niveau du locus coeruleus (LC).
Les animaux utilisés sont des souris mâles de la lignée pure Balb/C (Charles River Laboratories), âgées de 7 à 8 semaines au moment du traitement.
Les souris reçoivent une injection unique par voie intrapéritonéale du composé à tester, dissous dans une solution d'HCl 0,04 M (contrôle correspondant : HCl […]) si le composé est suffisamment soluble, ou dans l'huile d'olive 90 % / DMSO 10 % (contrôle correspondant : huile d'olive 90 % / DMSO 10 %) pour les composés insolubles en milieu aqueux.
Trois jours après l'injection de chaque molécule, tous les animaux sont sacrifiés par décapitation. Les cerveaux extraits sont ensuite congelés dans de l'azote liquide et conservés à -80° C.
Des coupes coronales de 8 microns d'épaisseur sont pratiquées le long de l'axe postéro-antérieur du LC et fixées. Les coupes sont transférées sur membranes Immobilon-P. La TH est mesurée par immunodétection et analyse d'image.

As to `CN1CCC[C@H]2C(=O)N3c4ccccc4C[C@@H]3[C@H]21` [Exemple 52, (4aR,11aR,11bS)-1-méthyl-1,2,3,4,4a,11,11a,11b-octahydropyrido[2'3':3,4]pyrrolo[1,2-a]indol-5-one], the “quantité de TH au niveau du LC, coupe 1” value turned out to be 69%; the “quantité de TH au niveau du LC, coupe 2” value was found to be 86%; the “quantité de TH au niveau du LC, coupe 3” value is 79%; the “quantité de TH au niveau du LC, coupe 4” value stood at 77%. The “quantité de TH au niveau du LC, coupe 5” value worked out at 40%; the “quantité de TH au niveau du LC, coupe 6” value was 22%; the “quantité de TH au niveau du LC, coupe 7” value was 12%; the “quantité de TH au niveau du LC, coupe 8” value is listed as 1%.

`C=CCN1CCC[C@@H]2C(=O)N3c4ccccc4C[C@@H]3[C@H]21` [Exemple 43, (4aS,11aR,11bS)-1-Allyl-1,2,3,4,4a,11,11a,11b-octahydropyrido[2',3':3,4]pyrrolo[1,2-a]indol-5-one]: the “quantité de TH au niveau du LC, coupe 7” value is 9%. Moreover, for the setting “listed as Ex.43, 20 mg/kg”, the “quantité de TH au niveau du LC, coupe 1” value is on record as 69%; the “quantité de TH au niveau du LC, coupe 2” value is reported as 88%; the “quantité de TH au niveau du LC, coupe 3” value was 87%; the “quantité de TH au niveau du LC, coupe 4” value is recorded as 60%. For the setting “listed as Ex.43, 20 mg/kg”, the “quantité de TH au niveau du LC, coupe 5” value is 36%; the “quantité de TH au niveau du LC, coupe 6” value came to 34%; the “quantité de TH au niveau du LC, coupe 8” value was 4%.

For the compound `CN1CCC[C@@H]2C(=O)N3c4ccccc4C[C@H]3[C@@H]21` (racemic) [Exemple 7, (4aSR,11aSR,11bRS)-1-Méthyl-1,2,3,4,4a,11,11a,11b-octahydropyrido[2',3':3,4]pyrrolo[1,2-a]indol-5-one], under “listed as Ex.7, 20 mg/kg”, the “quantité de TH au niveau du LC, coupe 1” value is recorded as 59%; the “quantité de TH au niveau du LC, coupe 2” value stood at 57%; the “quantité de TH au niveau du LC, coupe 3” value worked out at 57%; the “quantité de TH au niveau du LC, coupe 4” value worked out at 51%. Moreover, under “listed as Ex.7, 20 mg/kg”, the “quantité de TH au niveau du LC, coupe 5” value came out at 28%; the “quantité de TH au niveau du LC, coupe 6” value came to 23%; the “quantité de TH au niveau du LC, coupe 7” value is recorded as 13%; the “quantité de TH au niveau du LC, coupe 8” value was 4%.

Consider `C=CCN1CCC[C@@H]2C(=O)N3c4ccccc4C[C@@H]3[C@H]21` [Exemple 6, (4aSR, 11aRS,11bSR)-1-Allyl-1,2,3,4,4a,11,11a,11b-octahydropyrido[2 3'.3':3,4]pyrrolo[1,2-a]indol-5-one], for which, where the note is “listed as Ex.6, 20 mg/kg”, the “quantité de TH au niveau du LC, coupe 1” value is 65%; the “quantité de TH au niveau du LC, coupe 2” value turned out to be 62%; the “quantité de TH au niveau du LC, coupe 3” value was 50%; the “quantité de TH au niveau du LC, coupe 4” value came out at 53%. Moreover, under “listed as Ex.6, 20 mg/kg”, the “quantité de TH au niveau du LC, coupe 5” value is 41%; the “quantité de TH au niveau du LC, coupe 6” value was determined as 27%; the “quantité de TH au niveau du LC, coupe 8” value came to 6%.

Regarding `Cc1ccc2c(c1)cc1n2C(=O)C2=C1N(C)CCC2` [Exemple 38, 1,9-Diméthyl-1,2,3,4-tétrahydropyrido[2',3':3,4]pyrrolo[1,2-a]indol-5-one], the “quantité de TH au niveau du LC, coupe 1” value is listed as 64%; the “quantité de TH au niveau du LC, coupe 2” value is on record as 99%; the “quantité de TH au niveau du LC, coupe 3” value came to 76%; the “quantité de TH au niveau du LC, coupe 4” value worked out at 62%. For the same compound, the “quantité de TH au niveau du LC, coupe 5” value came out at 27%; the “quantité de TH au niveau du LC, coupe 6” value was found to be 14%; the “quantité de TH au niveau du LC, coupe 7” value is listed as -3%; the “quantité de TH au niveau du LC, coupe 8” value is given as 5%.

For the compound `CCCN1CC[C@@H]2c3ccccc3N3NC(=O)C[C@H]1[C@@H]23` [Exemple 15, (3aSR,6aRS,10cRS)-4-Propyl-(3a,4,5,6,6a,10c-hexahydro)-3H-1,4,10b-triazafluoranthén-2-one], the “quantité de TH au niveau du LC, coupe 1” value came to 79%; the “quantité de TH au niveau du LC, coupe 2” value came out at 75%; the “quantité de TH au niveau du LC, coupe 3” value is given as 72%; the “quantité de TH au niveau du LC, coupe 4” value was 79%. In addition, the “quantité de TH au niveau du LC, coupe 5” value is given as 33%; the “quantité de TH au niveau du LC, coupe 6” value worked out at 27%; the “quantité de TH au niveau du LC, coupe 7” value came out at 7%; the “quantité de TH au niveau du LC, coupe 8” value stood at 5%.

In the case of `O=C1[C@H]2CCCN[C@H]2[C@@H]2Cc3cc(F)ccc3N12` (racemic) [Exemple 24, (4aSR,11aSR,11bRS)-9-Fluoro-1,2,3,4,4a,11,11a,11b-octahydropyrido[2',3':3,4]pyrrolo[1,2-a]indol-5-one], the “quantité de TH au niveau du LC, coupe 1” value is on record as 51%; the “quantité de TH au niveau du LC, coupe 2” value is on record as 71%; the “quantité de TH au niveau du LC, coupe 3” value is reported as 63%; the “quantité de TH au niveau du LC, coupe 4” value came to 55%. Further, the “quantité de TH au niveau du LC, coupe 5” value is 44%; the “quantité de TH au niveau du LC, coupe 6” value turned out to be 33%; the “quantité de TH au niveau du LC, coupe 7” value is reported as 6%; the “quantité de TH au niveau du LC, coupe 8” value came to 3%.

Consider `O=C1C[C@@H]2[C@H]3[C@@H](CCN2Cc2ccccc2)c2ccccc2N13` (racemic) [Exemple 53, (3aRS,10bSR,10cRS)-3-Benzyl-2,3,3a,4,10b,10c-hexahydrobenzo [b]pyrido [2,3,4-gh]pyrrolizin-5(1H)-one], for which the “quantité de TH au niveau du LC, coupe 1” value came to 82%; the “quantité de TH au niveau du LC, coupe 2” value was 68%; the “quantité de TH au niveau du LC, coupe 3” value stood at 64%; the “quantité de TH au niveau du LC, coupe 4” value is given as 71%. For the same compound, the “quantité de TH au niveau du LC, coupe 5” value is on record as 53%; the “quantité de TH au niveau du LC, coupe 6” value is 52%; the “quantité de TH au niveau du LC, coupe 7” value was determined as 32%; the “quantité de TH au niveau du LC, coupe 8” value came out at 18%.
